According to ChEMBL document CHEMBL1201862, “PubChem BioAssay data set” (2004):
Values joined by “and” are separate entries in the source; they are usually repeats but may differ in a detail not shown here. Equal values may be shown once. Values belong to the molecule of their own block, whether it stands above or below them. Active and inactive are the calls of the source.

What was measured:
[1] = target: Casein kinase I isoform delta (Homo sapiens, UniProt P48730); assay type: functional;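 further: measured as one member (CSNK1D) of a kinome panel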
[2] = target: Eukaryotic elongation factor 2 kinase (Homo sapiens, UniProt O00418); assay type: functional
[3] = target: Eukaryotic translation initiation factor 4E (Mus musculus, UniProt P63073); assay: eIF4E–eIF4G protein interaction inhibitors, dose response, biochemical, TR-FRET (AID 855); assay type: functional;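 further: potency for disrupting eIF4E binding to eIF4GI seen as loss of FRET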
[4] = target: T1, Hexokinase-1 (Homo sapiens, UniProt P19367); assay: SAR analysis of small molecule inhibitors of hexokinase domain containing I (HKDC1) in the hexokinase 1 selectivity assay. [Related pubchem assays (depositor defined):AID493160, AID493190]; assay type: functional
T1 sequence (P19367 whole entry): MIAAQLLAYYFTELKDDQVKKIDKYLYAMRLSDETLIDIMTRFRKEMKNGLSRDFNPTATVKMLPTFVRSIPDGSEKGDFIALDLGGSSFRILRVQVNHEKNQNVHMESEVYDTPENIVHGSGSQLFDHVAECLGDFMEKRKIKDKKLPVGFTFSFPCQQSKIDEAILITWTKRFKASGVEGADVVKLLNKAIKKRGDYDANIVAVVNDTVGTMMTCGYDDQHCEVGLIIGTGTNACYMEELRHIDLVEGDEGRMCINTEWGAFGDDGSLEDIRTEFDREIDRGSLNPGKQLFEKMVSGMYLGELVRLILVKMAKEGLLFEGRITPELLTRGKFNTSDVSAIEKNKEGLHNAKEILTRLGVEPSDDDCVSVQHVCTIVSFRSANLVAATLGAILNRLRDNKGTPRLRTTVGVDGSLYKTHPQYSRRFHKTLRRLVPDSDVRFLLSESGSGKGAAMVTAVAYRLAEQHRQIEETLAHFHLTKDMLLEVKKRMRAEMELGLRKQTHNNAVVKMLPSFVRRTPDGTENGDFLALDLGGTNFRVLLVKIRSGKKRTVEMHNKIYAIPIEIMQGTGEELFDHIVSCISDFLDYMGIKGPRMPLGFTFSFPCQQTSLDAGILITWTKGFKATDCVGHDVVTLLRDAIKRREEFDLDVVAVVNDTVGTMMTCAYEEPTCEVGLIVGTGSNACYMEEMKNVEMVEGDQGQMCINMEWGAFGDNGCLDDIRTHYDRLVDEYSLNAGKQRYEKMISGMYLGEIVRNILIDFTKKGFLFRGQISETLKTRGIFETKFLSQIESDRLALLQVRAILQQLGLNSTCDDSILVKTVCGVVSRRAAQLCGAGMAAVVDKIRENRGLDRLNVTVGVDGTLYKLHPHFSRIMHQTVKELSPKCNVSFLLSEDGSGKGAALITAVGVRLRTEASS

[5] = target: RNA-editing ligase 1, mitochondrial (Trypanosoma brucei brucei, UniProt P86926); assay: TbREL1 ligase inhibitors, dose response, biochemical, fluorescence, Trypanosoma brucei (AID 1117295); assay type: functional
[6] = target: T2, Cytochrome P450 1A2 (Homo sapiens, UniProt P05177);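 further: PubChem cytochrome P450 panel assay, CYP1A2 panel member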
T2 sequence (P05177 whole entry): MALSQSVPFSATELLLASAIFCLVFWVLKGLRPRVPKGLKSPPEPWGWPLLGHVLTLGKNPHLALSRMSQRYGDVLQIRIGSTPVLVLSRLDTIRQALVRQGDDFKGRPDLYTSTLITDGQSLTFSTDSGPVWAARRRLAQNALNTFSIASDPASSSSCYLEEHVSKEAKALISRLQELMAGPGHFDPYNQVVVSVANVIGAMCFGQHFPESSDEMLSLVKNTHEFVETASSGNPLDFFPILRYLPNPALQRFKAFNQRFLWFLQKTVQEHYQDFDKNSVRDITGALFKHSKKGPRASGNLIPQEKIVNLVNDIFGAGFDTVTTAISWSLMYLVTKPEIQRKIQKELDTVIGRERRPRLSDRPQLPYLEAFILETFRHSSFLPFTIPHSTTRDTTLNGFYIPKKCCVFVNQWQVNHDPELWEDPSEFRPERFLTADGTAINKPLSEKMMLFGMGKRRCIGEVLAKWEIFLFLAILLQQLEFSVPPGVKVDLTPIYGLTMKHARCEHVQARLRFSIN

[7] = target: T3, Hexokinase HKDC1 (Homo sapiens, UniProt Q2TB90); assay: SAR analysis of small molecule inhibitors of hexokinase domain containing I (HKDC1). [Related pubchem assays (depositor defined):AID493160, AID493190]; assay type: functional
T3 sequence (Q2TB90 whole entry): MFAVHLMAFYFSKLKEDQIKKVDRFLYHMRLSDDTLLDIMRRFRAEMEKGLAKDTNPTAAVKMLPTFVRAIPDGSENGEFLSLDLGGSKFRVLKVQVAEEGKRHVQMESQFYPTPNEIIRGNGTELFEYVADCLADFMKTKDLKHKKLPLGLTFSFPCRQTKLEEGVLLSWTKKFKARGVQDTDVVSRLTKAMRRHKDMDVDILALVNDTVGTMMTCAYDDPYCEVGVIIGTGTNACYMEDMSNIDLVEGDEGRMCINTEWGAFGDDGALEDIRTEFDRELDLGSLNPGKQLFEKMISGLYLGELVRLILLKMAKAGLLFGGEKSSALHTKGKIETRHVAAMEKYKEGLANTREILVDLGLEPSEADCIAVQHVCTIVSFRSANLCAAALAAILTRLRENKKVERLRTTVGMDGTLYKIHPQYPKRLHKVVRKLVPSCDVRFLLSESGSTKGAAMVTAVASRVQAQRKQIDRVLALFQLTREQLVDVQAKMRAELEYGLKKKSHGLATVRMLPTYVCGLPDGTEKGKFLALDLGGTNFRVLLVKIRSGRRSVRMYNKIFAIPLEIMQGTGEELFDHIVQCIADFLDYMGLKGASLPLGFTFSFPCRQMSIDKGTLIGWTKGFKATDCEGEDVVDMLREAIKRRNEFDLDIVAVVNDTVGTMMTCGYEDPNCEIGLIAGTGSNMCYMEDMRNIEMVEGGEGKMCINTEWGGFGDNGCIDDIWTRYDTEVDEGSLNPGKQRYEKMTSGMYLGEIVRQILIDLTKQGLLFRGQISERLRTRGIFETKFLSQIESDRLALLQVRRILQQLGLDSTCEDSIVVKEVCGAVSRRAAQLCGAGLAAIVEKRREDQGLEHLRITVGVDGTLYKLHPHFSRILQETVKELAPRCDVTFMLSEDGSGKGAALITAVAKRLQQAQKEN

[8] = target: T3, Hexokinase HKDC1; assay: SAR analysis of small molecule inhibitors of hexokinase domain containing I (HKDC1) - Set 3. [Related pubchem assays (depositor defined):AID493160, AID493190]; assay type: functional
[9] = target: T3, Hexokinase HKDC1; assay: HKDC1 hexokinase inhibitors, SAR follow-up, biochemical, set 2 (AID 588355); assay type: functional
[10] = target: T3, Hexokinase HKDC1; assay: HKDC1 hexokinase inhibitors, dose response, biochemical, W721R variant (AID 504729); assay type: functional
[11] = target: T1, Hexokinase-1; assay: HK1 enzyme inhibition by HKDC1 hits, SAR follow-up, selectivity assay for HKDC1 inhibitor project, biochemical, set 2, resazurin fluorescence coupled readout (AID 588356); assay type: functional
[12] = target: Cytochrome P450 2C9 (Homo sapiens, UniProt P11712)
[13] = target: Platelet-activating factor acetylhydrolase (Mus musculus, UniProt Q60963); assay: Late stage assay provider results from the probe development effort to identify inhibitors of plasma platelet activating factor acetylhydrolase (pPAFAH): fluorescence-based dose response biochemical gel-based competitive Activity-Based Protein Profiling (ABPP) assay for HTS compounds. [Related pubchem assays (depositor defined):AID463082, AID463092, AID463230, AID588474]; assay type: cell-free
[14] = CAL PDZ domain peptide-binding inhibitors, dose response, biochemical, fluorescence polarization, untagged CAL PDZ, dry powder (AID 602255); assay type: functional
[15] = target: Cystic fibrosis transmembrane conductance regulator/Golgi-associated PDZ and coiled-coil motif-containing protein (Homo sapiens, UniProt P13569+Q9HD26); assay: CAL PDZ domain peptide-binding inhibitors, dose response, biochemical, fluorescence polarization, Cer-tagged CAL PDZ, dry powder (AID 602253); assay type: functional
[16] = target: Serine/threonine-protein kinase pim-1 (Homo sapiens, UniProt P11309); assay type: functional
[17] = target: Mitogen-activated protein kinase kinase kinase kinase 4 (Homo sapiens, UniProt O95819); assay type: functional
[18] = system: CHO-K1; assay: (§1) Counterscreen for antagonists of the orexin 1 receptor (OX1R; HCRTR1): Homogeneous time resolved fluorescence (HTRF)-based cell-based dose response assay to identify antagonists of the parental CHO-K1 cell line. [Related pubchem assays (depositor defined):AID434989, AID435008, AID463079, AID485270, AID492963, AID492964, AID492965, AID493232, AID504699, AID504701]; assay type: functional; conditions: Cricetulus griseus
[19] = target: T4, Orexin/Hypocretin receptor type 1 (Homo sapiens, UniProt O43613); assay: Homogeneous Time Resolved Fluorescence (HTRF)-based cell-based high throughput dose response assay for antagonists of the orexin 1 receptor (OX1R; HCRTR1). [Related pubchem assays (depositor defined):AID434989, AID435008, AID463079, AID485270, AID492963, AID492964, AID492965, AID493232, AID504717, AID504718]; assay type: functional
T4 sequence (O43613 whole entry): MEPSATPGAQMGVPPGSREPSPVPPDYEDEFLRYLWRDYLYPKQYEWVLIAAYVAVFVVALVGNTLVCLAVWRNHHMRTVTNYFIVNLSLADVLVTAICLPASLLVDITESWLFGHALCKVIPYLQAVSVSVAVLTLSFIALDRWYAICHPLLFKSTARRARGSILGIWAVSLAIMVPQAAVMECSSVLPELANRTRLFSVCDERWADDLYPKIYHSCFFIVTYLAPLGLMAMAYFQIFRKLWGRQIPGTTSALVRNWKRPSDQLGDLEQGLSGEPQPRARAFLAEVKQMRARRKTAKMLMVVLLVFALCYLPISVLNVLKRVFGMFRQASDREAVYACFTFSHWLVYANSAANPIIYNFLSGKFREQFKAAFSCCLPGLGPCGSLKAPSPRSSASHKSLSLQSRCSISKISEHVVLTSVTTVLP

[20] = as §1, with “Fluorescence-based” for “Homogeneous time resolved fluorescence (HTRF)-based”, “cell-based high throughput” for “cell-based”, “CHO” for “CHO-K1”; assay type: functional
[21] = target: T5, Orexin receptor type 2 (Homo sapiens, UniProt O43614); assay: Counterscreen assay for antagonists of the orexin 1 receptor (OX1R; HCRTR1): Fluorescence-based cell-based dose response assay for antagonists of the orexin 2 receptor (OX2R; HCRTR2), run by assay provider.; assay type: functional
[22] = target: T4, Orexin/Hypocretin receptor type 1; assay: Fluorescence-based cell-based high throughput dose response assay for antagonists of the orexin 1 receptor (OX1R; HCRTR1). [Related pubchem assays (depositor defined):AID434989, AID435008, AID463079, AID485270, AID492963, AID492964, AID492965, AID493232, AID504717, AID504718]; assay type: functional
[23] = target: T5, Orexin receptor type 2; assay: Counterscreen assay for antagonists of the orexin 1 receptor (OX1R; HCRTR1): Homogeneous Time Resolved Fluorescence (HTRF)-based cell-based dose response assay for antagonists of the orexin 2 receptor (OX2R; HCRTR2), run by assay provider.; assay type: functional
[24] = target: DNA dC->dU-editing enzyme APOBEC-3A (Homo sapiens, UniProt P31941); assay: SAR analysis of small molecule inhibitors of APOBEC3A DNA Deaminase via a fluorescence-based single-stranded DNA deaminase assay.; assay type: functional; conditions: read-out: IC50_Mean
[25] = target: DNA dC->dU-editing enzyme APOBEC-3G (Homo sapiens, UniProt Q9HC16); assay: APOBEC3G deaminase inhibitors, SAR follow-up, biochemical, fluorescence, single-stranded DNA substrate (AID 602136); assay type: functional; conditions: read-out: IC50_Mean
Chain of DNA dC->dU-editing enzyme APOBEC-3G (Q9HC16 whole entry): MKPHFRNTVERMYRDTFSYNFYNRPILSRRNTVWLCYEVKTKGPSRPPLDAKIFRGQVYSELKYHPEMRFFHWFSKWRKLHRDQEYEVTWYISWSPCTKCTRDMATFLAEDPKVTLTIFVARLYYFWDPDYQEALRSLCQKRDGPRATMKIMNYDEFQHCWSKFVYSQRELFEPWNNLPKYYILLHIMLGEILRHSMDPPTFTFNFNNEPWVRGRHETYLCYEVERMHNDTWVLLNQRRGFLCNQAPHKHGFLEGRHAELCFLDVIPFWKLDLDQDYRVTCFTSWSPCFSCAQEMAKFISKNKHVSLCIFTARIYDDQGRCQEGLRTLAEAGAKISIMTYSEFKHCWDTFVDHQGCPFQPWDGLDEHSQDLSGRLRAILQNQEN

T5 sequence (O43614 whole entry): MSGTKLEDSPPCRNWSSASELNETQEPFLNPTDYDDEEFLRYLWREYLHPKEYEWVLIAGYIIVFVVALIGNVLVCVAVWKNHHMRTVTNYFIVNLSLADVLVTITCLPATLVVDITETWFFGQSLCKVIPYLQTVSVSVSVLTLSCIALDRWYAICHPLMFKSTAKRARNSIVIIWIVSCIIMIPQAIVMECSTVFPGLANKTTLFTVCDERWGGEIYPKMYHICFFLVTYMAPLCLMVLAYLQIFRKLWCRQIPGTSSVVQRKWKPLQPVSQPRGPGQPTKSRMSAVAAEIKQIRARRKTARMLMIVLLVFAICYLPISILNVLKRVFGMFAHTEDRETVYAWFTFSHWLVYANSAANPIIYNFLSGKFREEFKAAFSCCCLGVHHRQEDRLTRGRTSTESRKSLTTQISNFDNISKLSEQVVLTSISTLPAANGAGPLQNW
Chain of Eukaryotic translation initiation factor 4E (P63073 whole entry, the tested form may be a part): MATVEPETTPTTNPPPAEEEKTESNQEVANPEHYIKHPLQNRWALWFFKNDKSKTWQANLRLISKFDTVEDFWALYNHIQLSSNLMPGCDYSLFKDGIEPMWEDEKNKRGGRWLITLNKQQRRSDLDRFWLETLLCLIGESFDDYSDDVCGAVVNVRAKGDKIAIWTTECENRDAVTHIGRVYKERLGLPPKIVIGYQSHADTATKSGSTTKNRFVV
Chain of DNA dC->dU-editing enzyme APOBEC-3A (P31941 whole entry): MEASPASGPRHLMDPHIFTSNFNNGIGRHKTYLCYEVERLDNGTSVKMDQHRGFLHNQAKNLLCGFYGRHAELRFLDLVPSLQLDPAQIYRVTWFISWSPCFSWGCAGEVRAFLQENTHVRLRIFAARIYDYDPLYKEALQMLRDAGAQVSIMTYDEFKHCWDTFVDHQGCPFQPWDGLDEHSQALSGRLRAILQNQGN
Chain of Serine/threonine-protein kinase pim-1 (P11309 whole entry): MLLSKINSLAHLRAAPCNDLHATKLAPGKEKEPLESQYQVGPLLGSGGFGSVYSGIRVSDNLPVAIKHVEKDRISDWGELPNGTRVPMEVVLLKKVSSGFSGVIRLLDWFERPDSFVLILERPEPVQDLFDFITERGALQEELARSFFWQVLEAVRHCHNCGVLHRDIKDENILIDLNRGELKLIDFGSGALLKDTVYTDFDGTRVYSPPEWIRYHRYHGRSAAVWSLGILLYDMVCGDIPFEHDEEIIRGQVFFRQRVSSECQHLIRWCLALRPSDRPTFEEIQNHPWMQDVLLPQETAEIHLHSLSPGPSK
Chain of RNA-editing ligase 1, mitochondrial (P86926 whole entry): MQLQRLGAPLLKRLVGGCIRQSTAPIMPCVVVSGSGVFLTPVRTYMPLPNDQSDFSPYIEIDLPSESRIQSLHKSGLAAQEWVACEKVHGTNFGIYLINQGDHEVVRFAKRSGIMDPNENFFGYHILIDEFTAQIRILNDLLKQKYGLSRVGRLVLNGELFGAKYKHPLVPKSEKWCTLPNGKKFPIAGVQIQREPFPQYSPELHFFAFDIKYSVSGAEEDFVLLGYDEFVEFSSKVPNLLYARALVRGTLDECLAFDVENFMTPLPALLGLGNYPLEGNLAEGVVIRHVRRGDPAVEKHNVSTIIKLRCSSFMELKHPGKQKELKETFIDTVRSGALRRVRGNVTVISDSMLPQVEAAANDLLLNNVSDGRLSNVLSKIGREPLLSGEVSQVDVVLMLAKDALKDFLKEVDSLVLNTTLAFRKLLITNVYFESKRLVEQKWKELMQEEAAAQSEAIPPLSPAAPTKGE
Chain of Cytochrome P450 2C9 (P11712 whole entry): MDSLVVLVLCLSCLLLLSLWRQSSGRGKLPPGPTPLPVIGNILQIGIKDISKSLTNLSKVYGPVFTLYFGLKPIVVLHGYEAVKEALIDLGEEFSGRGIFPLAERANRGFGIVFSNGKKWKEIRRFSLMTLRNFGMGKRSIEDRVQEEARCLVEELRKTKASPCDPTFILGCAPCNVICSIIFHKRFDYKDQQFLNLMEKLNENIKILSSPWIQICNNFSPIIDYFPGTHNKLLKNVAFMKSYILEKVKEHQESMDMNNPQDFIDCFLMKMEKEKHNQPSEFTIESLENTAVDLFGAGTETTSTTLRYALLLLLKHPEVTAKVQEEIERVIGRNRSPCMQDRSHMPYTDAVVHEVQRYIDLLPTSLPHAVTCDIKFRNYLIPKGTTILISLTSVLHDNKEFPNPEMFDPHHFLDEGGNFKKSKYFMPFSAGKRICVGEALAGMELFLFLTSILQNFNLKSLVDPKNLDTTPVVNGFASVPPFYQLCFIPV
Chain of Platelet-activating factor acetylhydrolase (Q60963 whole entry, the tested form may be a part): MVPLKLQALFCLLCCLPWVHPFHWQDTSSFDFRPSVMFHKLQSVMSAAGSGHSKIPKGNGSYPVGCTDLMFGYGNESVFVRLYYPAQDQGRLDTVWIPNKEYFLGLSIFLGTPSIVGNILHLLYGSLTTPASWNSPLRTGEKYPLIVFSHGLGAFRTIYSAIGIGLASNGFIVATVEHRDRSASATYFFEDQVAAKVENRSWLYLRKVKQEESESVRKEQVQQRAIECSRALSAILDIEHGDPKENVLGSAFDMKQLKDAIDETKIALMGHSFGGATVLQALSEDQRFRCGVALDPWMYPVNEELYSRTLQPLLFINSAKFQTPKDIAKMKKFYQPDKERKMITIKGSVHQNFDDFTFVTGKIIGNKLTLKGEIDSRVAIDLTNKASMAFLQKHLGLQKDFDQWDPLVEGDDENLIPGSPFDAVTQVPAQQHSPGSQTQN
Chain of Mitogen-activated protein kinase kinase kinase kinase 4 (O95819 whole entry): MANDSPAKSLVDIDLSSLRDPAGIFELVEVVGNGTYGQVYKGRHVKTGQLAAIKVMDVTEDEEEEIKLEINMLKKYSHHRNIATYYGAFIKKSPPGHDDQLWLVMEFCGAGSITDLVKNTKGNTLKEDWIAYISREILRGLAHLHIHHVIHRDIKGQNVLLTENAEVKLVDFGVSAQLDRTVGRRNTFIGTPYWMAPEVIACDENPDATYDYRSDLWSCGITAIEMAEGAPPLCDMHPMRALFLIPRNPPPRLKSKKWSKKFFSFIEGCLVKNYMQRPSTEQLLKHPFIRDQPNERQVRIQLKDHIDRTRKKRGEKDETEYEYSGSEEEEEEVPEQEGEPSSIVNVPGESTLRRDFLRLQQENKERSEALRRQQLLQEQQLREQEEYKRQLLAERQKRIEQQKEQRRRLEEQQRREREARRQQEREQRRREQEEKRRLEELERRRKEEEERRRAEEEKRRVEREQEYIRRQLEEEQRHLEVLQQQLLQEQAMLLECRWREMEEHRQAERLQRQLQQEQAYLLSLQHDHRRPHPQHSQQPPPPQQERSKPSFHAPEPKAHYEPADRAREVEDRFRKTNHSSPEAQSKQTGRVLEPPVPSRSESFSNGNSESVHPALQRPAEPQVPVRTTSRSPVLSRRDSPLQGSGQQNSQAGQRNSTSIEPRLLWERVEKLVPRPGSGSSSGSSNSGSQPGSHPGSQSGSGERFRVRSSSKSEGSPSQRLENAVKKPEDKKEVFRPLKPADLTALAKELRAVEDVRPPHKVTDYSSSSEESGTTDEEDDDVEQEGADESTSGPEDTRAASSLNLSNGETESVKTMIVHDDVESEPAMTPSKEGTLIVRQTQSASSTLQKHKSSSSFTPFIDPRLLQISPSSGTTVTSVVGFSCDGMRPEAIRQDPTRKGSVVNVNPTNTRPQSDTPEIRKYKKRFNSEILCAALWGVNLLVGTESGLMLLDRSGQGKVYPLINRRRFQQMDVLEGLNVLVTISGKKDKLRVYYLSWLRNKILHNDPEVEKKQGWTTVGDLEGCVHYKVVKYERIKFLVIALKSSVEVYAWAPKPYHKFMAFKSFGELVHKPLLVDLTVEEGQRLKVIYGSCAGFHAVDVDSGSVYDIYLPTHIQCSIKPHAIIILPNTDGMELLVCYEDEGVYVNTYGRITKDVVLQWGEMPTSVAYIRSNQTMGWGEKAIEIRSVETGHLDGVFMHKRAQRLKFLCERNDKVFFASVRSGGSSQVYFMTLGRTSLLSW
Chain of Casein kinase I isoform delta (P48730 whole entry, canonical isoform): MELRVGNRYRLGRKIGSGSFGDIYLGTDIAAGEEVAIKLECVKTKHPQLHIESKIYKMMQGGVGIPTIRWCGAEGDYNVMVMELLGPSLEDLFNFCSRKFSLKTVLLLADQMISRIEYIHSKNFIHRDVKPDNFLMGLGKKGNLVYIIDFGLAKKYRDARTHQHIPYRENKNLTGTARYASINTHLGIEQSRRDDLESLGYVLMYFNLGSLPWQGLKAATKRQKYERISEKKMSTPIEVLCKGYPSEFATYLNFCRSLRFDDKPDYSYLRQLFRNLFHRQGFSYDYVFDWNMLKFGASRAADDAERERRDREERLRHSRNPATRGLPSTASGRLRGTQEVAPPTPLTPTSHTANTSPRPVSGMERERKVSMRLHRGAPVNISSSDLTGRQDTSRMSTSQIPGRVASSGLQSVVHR

SMILES: CNC1CC2OC(C)(C1OC)n1c3ccccc3c3c4c(c5c6ccccc6n2c5c31)C(=O)NC4 (stereo not given)
Ki [1]: > 2.51 µM (inactive)
Ki [2]: > 1 µM (inactive)

SMILES: Cc1cccc(OCCSc2nc3ccccc3n2CCC(=O)O)c1
IC50 [18]: > 66.2 µM (inactive)
IC50 [19]: 1.57 µM (active)
IC50 [20]: > 49.8 µM (inactive)
IC50 [21]: 88.2 µM (inactive)
IC50 [22]: 19.6 µM (inactive)
IC50 [23]: > 50 µM (inactive)

SMILES: Cc1nnc(NC(=O)C2(c3ccc(F)cc3)CCC2)s1
IC50 [24]: > 99 µM (inactive)
IC50 [25]: > 99 µM (inactive)

More lines, main results first:

IC50 [3]: 9.21 µM (active)
IC50 [4]: > 80 µM (inactive)
IC50 [5]: 14.7 µM (inactive)
AC50 [6]: 35.5 µM (inconclusive)
IC50 [7]: 12.4 µM (active)
IC50 [8]: > 80 µM (inactive) and 12.1 µM (active)
IC50 [9]: > 80 µM (inactive) and 11.7 µM (active)
IC50 [10]: 8.47 µM (active)
IC50 [11]: > 80 µM (inactive)
AC50 [12]: 7.94 µM (inconclusive)
SMILES: COc1cc2c(cc1OC)-c1cc(NCc3ccccn3)nc(=O)n1CC2

IC50 [13]: 0.469 µM (active)
SMILES: O=C(Oc1ccc(-c2ccccc2)cc1)N1CCOCC1

AC50 [15]: 41.5 µM (active)
SMILES: CCc1ccc(S(=O)(=O)/N=C2\C=C(SC3=NCN=N3)C(=O)c3ccccc32)cc1
AC50 [14]: 44.5 µM (active)

Ki [16]: 2 µM (active)
Ki [17]: 1.26 µM (active)
SMILES: Clc1ccc(OCC2CN(Cc3c[nH]c4ncccc34)CCO2)cc1 (stereo not given)
